Values quoted from earlier work, collected in US6559165B1, “Methods for treating bulimia using optically pure (−) norcisapride” (priority 1998, dated 2003).

Columns and labels:
[1] = co-administration with ketoconazole

Structure (SMILES): COc1cc(N)c(Cl)cc1C(=O)N[C@H]1CCN(CCCOc2ccc(F)cc2)C[C@H]1OC (racemic) [(±) Cisapride, cis-4-amino-5-chloro-N-[1-[3-(4-fluorophenoxy)propyl]-3-methoxy-4-piperidinyl]-2-methoxybenzamide]
- increase of steady-state plasma levels [1]: 8 fold
- portion of dose metabolized (humans, oxidative N-dealkylation or aromatic hydroxylation): More than 90%
- bioavailability (oral administration to humans, rapid first-pass metabolism in the liver): 40-50%
